In one data set the test system is Anas platyrhynchos. Conditions: oral, mortality.
A further data set concerns Apis mellifera. Conditions: acute; duration: 48 hours; dermal; mortality.
Another data set deals with Canidae. As to conditions: oral, Dog Other, histopathology: nonneoplastic.
A further data set has as its system Daphnia magna. Conditions: chronic/long-term; duration: 21 days; reproduction.
Another data set has as its system Oncorhynchus mykiss. As to conditions: acute; duration: 96 hours; mortality.
In the next data set the test system is Pimephales promelas. As to conditions: chronic/long-term; duration: 32 days; other.
A further data set relates to Tagia sp. Conditions: acute; duration: 14 days; mortality.
The next data set has as its system Typhlodromus pyri. Put plainly: LR50; higher = less toxic. Conditions: not reported; mortality.

This note sets out measurements from EPA's ToxValDB 9.5 (doi:10.2903/j.efsa.2010.1592).

By NOAEL is commonly meant the highest dose or exposure tested at which no adverse effect was seen. With `COc1cc(OC)n2nc(S(=O)(=O)Nc3c(Cl)ccc(C)c3Cl)nc2n1` [Metosulam], the LD50 in the data set on Anas platyrhynchos (acute, unspecified) was more than 2000 mg/kg; in the data set on Apis mellifera, more than 100 µg/piece; in the data set with Colinus virginianus (acute, oral, mortality) it was more than 2250 mg/kg; in the data set with Rattus norvegicus (acute, oral, mortality) it was more than 5000 mg/kg. Further, the LC50 is more than 1920 mg/kg-day with Anas platyrhynchos (short-term, feed); more than 1400 mg/kg-day in the data set with Colinus virginianus (acute, oral, diet, mortality); more than 29.3 µg/mL in the data set with Oncorhynchus mykiss; more than 1000 mg/kg in the data set on Tagia sp.. For the same compound, the NOAEL amounted to 10 mg/kg-day in the data set with Canidae (chronic, duration: 1 years); 25 mg/kg-day in the data set with Canidae (short-term, duration: 2 weeks, diet); 5 mg/kg-day with Rattus norvegicus (chronic, duration: 2 years, histopathology: nonneoplastic). In addition, the NOEC with Colinus virginianus (reproduction developmental) worked out at 22 mg/kg-day; in the data set on Daphnia magna, 2.5 mg/L; in the data set with Pimephales promelas, 4.24 mg/L. For the same compound, the NOEL in the data set on Rattus norvegicus (chronic, histopathology: nonneoplastic) was found to be 30 mg/kg-day. In the data set with Typhlodromus pyri, the LR50 was more than 40 mg/kg.
